The source made the active and inactive calls.
Key:
Bcl-2-like protein 10 = Bcl-2-like protein 10 (Homo sapiens, UniProt Q9HD36); test: Biochemical TR3 FP assay of Bcl-B inhibitor potency, EC50 (AID 1243); assay type: functional
[1] = biological target: T1, Heat shock 70 kDa protein 1A (Homo sapiens, UniProt P0DMV8); test: Hsp70 inhibitors, probe displacement, primary screen, biochemical, fluorescence polarization (AID 583)
[2] = biological target: T1, Heat shock 70 kDa protein 1A; test: Hsp70 inhibitors, biochemical, TR-FRET (AID 786)
Fatty acid synthase [3] = biological target: T2, Fatty acid synthase (Homo sapiens, UniProt P49327); test: FAS thioesterase domain inhibitors, dose response, biochemical, endpoint fluorescence intensity, uHTS hits (AID 624327); assay type: functional;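 also: fluorescence from hydrolysis of an O-methyl fluorescein acyl ester substrate by the enzyme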
[4] = biological target: Sphingosine 1-phosphate receptor 3 (Homo sapiens, UniProt Q99500); test: Dose response cell-based high throughput screening assay for antagonists of the Sphingosine 1-Phosphate Receptor 3 (S1P3). [Related pubchem assays: 1429, 485 ]; assay type: functional
[5] = biological target: 5-hydroxytryptamine receptor 1E (Homo sapiens, UniProt P28566); test: Counterscreen assay for S1P3 antagonists: Dose response cell-based high throughput screening assay to identify antagonists of the 5-Hydroxytryptamine Receptor Subtype 1E (5HT1E). [Related pubchem assays: 1429, 485 ]; assay type: functional
Fatty acid synthase [6] = biological target: T2, Fatty acid synthase; test: FAS thioesterase domain inhibitors, dose response, biochemical, kinetic fluorescence intensity (AID 624326); assay type: functional;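 also: rate of fluorescence rise from hydrolysis of a fluorogenic O-methyl fluorescein ester substrate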
[7] = inhibitors of Bluetongue virus cytopathic effect, confirmation, arbovirus, BSR cells (AID 1250); assay type: functional;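 also: protection from viral cytopathic effect measured as cell viability by ATP luminescence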
[8] = biological target: Lytic switch protein BZLF1 (Epstein-Barr virus (strain B95-8) (HHV-4) (Human herpesvirus 4), UniProt P03206); test: EBV ZTA inhibitors, dose response, counter-screen for EBNA-1 inhibitor project, biochemical, fluorescence polarization, Epstein-Barr virus, 1536-well (AID 2377); set-up: species or system human gammaherpesvirus 4;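 also: fluorescence polarization of Cy5-labelled ZRE DNA probe bound by purified Zta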
[9] = biological target: Epstein-Barr nuclear antigen 1 (Epstein-Barr virus (strain B95-8) (HHV-4) (Human herpesvirus 4), UniProt P03211); test: EBNA-1 inhibitors, dose response, biochemical, fluorescence polarization, 1536-well (AID 2381); set-up: species or system human gammaherpesvirus 4;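 also: fluorescence polarization of a Cy5 DNA probe bound by EBNA-1 protein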
[10] = cytotoxicity toward NIH3T3 fibroblasts, dose response, counter-screen, cell-based, ATP luminescence, mouse fibroblasts (AID 2010); assay type: functional;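 also: cells exposed to compound for about 90 hours before reading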
[11] = biological target: Neuropeptide Y receptor type 1 (Homo sapiens, UniProt P25929); test: Fluorescence-based counterscreen for agonists of NPY-Y2: cell-based high-throughput dose response assay for agonists of NPY-Y1.; assay type: functional
HEK293 = test: Fluorescence-based counterscreen for potentiators or agonists of NPY-Y2: cell-based high-throughput dose response assay to identify inhibitors of cyclic nucleotide gated ion channel (CNGC) activity. In this assay, the parental HEK293 cell line transfected with a cyclic-nucleotide gated ion channel (CNGC)-based cAMP sensor is used to measure inhibition of isoproterenol-induced CNGC activity by test compound.; assay type: functional; conditions: Homo sapiens;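 also: stimulus is 1 µM isoproterenol at EC100 plus PDE inhibitor Ro 20-1724 at 25 µM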
[12] = biological target: Neuropeptide Y receptor type 2 (Homo sapiens, UniProt P49146); test: Fluorescence-based cell-based high-throughput dose response assay for agonists of NPY-Y2. [Related pubchem assays: 1703 (Screening assay (CNGC inhibitors).), 1359 (Screening assay (NPY-Y2 potentiators or agonists).), 1304 (Screening assay (NPY-Y1 potentiators or agonists).), 1710 (Screening assay (NPY-Y2 agonists).), 1791 (Summary AID.)]; assay type: functional
[13] = biological target: T3, Heat shock factor protein 1 (Mus musculus, UniProt P38532); test: inhibition of MG132-induced HSE-luciferase signal, confirmation, cell-based, NIH3T3, luminescence, dose retest (AID 2382); assay type: functional;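 also: NIH3T3 fibroblasts with HSF1-driven luciferase reporter stressed by proteasome inhibitor MG132; luminescence from HSF1-driven luciferase expression after 8 hours of MG132 stress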
T3 sequence (P38532 whole entry): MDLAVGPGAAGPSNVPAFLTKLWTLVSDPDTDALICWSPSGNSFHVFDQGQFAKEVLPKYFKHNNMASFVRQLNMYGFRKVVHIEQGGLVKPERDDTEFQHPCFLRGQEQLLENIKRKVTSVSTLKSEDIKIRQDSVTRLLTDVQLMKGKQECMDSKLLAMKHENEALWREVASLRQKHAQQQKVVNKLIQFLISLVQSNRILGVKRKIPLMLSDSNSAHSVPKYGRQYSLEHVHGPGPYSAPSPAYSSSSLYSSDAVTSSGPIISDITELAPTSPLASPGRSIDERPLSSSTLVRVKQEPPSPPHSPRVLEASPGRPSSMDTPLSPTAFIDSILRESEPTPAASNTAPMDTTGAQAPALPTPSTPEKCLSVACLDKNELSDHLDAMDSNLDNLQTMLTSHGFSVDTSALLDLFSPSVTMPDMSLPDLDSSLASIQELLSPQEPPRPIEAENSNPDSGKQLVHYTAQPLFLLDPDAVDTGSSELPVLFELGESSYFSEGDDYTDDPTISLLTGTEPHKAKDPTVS

[14] = inhibitors of intracellular T. cruzi replication, confirmation, NIH3T3 host cells, beta-gal luminescence (AID 2044); assay type: functional, cell-based;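 also: intracellular parasites grown in NIH/3T3 mouse fibroblasts as host cells; luminescent beta-galactosidase reporter signal from transgenic T. cruzi replicating inside host cells; inhibitors lower the luminescence signal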
Mucolipin-3 = Mucolipin-3 (Homo sapiens, UniProt Q8TDD5); test: Dose response cell-based high-throughput screening assay for agonists of the transient receptor potential channel ML3 (TRPML3). [Related pubchem assays: 1526, 1424, 1448 ]; assay type: functional
Ion channel NompC = Ion channel NompC (Danio rerio, UniProt Q7T1G6); test: Fluorescence counterscreen assay for TRPML3 agonists: dose response cell-based high-throughput screening assay to identify agonists of the transient receptor potential channel N1 (TRPN1). [Related pubchem assays: 1526, 1424, 1448 ]; assay type: functional
[15] = A cytotoxicity screen of small molecule inhibitors of the PhoP region in Salmonella typhi identified in the primary screen. [Related pubchem assays: 1850, 1864, 1985 ]; assay type: functional

T1 sequence (P0DMV8 whole entry): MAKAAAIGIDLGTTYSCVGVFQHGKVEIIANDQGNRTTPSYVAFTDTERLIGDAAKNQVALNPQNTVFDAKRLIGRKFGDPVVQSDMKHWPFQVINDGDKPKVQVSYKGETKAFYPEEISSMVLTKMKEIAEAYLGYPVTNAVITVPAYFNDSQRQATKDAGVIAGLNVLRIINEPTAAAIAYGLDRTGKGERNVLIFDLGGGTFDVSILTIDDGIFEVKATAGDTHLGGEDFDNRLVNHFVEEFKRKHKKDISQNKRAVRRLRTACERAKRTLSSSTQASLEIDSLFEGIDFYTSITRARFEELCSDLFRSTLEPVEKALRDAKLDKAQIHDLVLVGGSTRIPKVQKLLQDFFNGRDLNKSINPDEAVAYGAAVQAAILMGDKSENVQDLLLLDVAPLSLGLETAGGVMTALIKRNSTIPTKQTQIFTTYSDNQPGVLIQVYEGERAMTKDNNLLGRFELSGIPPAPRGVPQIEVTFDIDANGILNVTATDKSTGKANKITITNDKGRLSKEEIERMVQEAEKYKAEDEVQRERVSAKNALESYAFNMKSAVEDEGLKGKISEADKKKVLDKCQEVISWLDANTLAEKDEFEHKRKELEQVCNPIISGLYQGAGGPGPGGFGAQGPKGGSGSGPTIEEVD
T2 sequence (P49327 whole entry, the tested form may be a part): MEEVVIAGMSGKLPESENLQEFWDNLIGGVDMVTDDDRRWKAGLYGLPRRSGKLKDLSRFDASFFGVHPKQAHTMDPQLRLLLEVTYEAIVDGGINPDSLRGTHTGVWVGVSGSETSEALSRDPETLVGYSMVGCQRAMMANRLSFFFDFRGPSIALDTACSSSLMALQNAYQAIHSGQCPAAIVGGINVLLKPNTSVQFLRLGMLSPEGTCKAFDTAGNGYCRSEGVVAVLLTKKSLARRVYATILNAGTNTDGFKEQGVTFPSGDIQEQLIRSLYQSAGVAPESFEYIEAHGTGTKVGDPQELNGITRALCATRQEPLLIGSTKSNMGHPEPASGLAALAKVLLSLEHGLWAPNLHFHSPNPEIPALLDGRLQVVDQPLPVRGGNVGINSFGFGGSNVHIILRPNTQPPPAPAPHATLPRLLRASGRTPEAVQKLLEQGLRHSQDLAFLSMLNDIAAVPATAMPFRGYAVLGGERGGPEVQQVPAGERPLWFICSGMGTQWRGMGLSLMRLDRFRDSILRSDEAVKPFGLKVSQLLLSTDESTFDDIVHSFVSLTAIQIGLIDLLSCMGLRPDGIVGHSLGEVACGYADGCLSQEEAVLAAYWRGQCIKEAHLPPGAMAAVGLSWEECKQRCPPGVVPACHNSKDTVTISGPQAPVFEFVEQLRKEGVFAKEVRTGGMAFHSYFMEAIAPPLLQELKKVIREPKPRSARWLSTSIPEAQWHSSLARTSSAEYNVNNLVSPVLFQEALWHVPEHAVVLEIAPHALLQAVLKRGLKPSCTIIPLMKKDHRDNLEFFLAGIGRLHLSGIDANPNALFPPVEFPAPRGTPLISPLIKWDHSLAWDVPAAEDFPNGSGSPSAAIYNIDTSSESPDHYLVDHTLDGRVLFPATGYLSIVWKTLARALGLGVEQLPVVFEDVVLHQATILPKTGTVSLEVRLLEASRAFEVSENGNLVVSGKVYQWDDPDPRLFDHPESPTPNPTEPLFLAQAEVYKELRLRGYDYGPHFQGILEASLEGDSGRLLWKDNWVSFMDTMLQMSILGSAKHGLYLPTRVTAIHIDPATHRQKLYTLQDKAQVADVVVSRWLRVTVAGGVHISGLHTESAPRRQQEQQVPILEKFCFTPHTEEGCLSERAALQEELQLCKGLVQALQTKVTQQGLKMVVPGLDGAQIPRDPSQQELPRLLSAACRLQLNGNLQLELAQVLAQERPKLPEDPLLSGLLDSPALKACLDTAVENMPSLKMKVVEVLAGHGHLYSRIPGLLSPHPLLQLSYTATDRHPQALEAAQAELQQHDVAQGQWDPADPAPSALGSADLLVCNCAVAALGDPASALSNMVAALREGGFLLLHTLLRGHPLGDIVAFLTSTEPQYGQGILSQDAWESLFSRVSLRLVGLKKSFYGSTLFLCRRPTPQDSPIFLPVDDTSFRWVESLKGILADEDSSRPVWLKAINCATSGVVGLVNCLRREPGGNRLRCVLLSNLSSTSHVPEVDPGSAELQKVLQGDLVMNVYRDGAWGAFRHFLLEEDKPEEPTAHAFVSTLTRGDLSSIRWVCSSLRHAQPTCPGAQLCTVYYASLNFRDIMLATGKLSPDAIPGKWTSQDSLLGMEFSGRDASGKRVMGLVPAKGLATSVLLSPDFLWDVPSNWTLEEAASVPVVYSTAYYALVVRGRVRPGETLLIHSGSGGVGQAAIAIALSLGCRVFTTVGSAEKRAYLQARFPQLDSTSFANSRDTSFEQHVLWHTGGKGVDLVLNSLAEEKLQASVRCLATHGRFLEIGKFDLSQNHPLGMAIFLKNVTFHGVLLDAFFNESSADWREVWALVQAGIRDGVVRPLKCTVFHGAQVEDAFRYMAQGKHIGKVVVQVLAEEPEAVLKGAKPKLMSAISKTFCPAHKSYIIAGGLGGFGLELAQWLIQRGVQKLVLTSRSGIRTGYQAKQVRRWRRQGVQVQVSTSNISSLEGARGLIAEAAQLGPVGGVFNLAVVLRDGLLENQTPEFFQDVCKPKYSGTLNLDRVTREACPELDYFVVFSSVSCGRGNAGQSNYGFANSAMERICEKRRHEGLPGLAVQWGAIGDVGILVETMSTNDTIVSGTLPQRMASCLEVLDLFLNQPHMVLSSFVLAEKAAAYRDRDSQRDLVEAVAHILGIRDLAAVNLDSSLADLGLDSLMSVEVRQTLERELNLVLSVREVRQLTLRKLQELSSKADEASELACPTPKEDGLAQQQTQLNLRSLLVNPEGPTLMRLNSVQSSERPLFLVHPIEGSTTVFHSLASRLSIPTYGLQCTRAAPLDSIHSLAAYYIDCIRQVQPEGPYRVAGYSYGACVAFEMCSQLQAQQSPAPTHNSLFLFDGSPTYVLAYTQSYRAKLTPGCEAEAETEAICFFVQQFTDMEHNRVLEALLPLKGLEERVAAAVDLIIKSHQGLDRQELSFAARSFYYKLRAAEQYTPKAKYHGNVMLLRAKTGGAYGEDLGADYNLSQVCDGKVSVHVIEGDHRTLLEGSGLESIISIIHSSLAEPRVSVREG
Sphingosine 1-phosphate receptor 3, sequence (Q99500 whole entry): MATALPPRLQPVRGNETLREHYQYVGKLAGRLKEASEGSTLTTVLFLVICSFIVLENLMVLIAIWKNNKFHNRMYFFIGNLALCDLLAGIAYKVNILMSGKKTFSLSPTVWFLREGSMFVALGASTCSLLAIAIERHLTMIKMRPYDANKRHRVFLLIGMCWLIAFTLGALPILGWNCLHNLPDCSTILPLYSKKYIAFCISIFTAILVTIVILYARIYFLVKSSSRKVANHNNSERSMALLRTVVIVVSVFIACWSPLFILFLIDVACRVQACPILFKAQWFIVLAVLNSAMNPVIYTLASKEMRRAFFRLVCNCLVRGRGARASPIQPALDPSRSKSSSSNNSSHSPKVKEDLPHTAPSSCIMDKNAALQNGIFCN
Ion channel NompC, sequence (Q7T1G6 whole entry): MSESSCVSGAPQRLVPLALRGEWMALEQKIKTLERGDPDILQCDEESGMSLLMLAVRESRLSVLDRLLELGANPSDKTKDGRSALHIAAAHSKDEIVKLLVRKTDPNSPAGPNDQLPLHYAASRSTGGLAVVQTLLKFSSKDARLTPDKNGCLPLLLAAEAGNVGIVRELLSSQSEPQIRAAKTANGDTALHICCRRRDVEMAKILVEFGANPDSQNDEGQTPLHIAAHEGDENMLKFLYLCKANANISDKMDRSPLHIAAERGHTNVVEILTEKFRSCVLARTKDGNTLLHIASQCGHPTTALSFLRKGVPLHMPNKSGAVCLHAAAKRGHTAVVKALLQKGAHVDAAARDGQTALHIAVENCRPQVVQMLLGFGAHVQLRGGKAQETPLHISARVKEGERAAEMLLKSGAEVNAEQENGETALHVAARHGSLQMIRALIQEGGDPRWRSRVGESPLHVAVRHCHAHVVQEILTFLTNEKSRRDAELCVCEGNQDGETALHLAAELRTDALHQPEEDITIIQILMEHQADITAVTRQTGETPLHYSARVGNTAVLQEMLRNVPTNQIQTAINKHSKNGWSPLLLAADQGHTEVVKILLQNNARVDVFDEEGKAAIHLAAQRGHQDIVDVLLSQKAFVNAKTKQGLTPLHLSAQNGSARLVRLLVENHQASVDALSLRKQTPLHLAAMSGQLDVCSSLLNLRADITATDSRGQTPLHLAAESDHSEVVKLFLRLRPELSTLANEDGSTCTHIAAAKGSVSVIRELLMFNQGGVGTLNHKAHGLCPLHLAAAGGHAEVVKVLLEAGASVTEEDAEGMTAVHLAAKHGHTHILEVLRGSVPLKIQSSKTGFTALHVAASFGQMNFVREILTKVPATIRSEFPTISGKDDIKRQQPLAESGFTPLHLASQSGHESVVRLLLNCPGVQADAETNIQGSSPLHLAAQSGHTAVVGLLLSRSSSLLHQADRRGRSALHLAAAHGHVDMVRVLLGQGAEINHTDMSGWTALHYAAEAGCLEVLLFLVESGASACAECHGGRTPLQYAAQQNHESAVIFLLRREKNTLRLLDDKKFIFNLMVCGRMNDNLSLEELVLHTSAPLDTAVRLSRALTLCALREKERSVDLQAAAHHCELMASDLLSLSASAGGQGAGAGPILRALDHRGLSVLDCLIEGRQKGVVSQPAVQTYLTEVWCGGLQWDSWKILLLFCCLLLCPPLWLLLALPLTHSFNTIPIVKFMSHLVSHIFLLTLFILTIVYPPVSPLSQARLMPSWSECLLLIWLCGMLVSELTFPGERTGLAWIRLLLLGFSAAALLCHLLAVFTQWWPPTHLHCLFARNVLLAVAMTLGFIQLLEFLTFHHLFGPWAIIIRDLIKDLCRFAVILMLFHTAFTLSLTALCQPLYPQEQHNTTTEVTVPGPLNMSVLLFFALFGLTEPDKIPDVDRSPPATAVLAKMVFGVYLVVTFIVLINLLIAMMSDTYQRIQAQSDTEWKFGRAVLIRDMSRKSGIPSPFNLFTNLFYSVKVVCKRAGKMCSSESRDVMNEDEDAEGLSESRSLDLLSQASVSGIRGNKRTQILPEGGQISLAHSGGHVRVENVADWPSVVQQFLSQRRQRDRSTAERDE

Structure (SMILES): O=C(O)c1ccc2c(c1)C1C=CCC1C(c1cccc([N+](=O)[O-])c1)N2 (stereo unspecified)
- EC50 (Bcl-2-like protein 10): 1.75 µM (active)

Structure (SMILES): Cc1ccc(OCCN2CCN(C(=O)CCC(=O)Nc3nnc(C)s3)CC2)cc1
- IC50 [1]: > 100 µM (not active)
- IC50 [2]: > 100 µM (not active)

Structure (SMILES): Cc1ccc(NC(=O)C2(c3ccc([N+](=O)[O-])cc3)CCCC2)cc1
- IC50 (Fatty acid synthase [3]): 14.6 µM (active)
- IC50 [4]: 6.92 µM (active)
- IC50 [5]: 9.48 µM (active)
- IC50 (Fatty acid synthase [6]): 8.73 µM (active)

Structure (SMILES): COc1ccc(/C=C/C(=O)Nc2cc(C(F)(F)F)ccc2Cl)cc1OC
- IC50 [7]: 27.9 µM (active)

Structure (SMILES): COC(=O)c1cccc(S(=O)(=O)N2CCC(NC(=O)Nc3cccc(F)c3)CC2)c1
- IC50 [8]: > 111 µM (not active)
- IC50 [9]: 6.09 µM (active)

Structure (SMILES): COc1ccc2c(c1)c(CC(=O)Nc1nnc(C3CC3)s1)c(C)n2C(=O)c1ccc(Cl)cc1
- EC50 [10]: 5.09 µM (active)
- EC50 [11]: > 35.4 µM (not active)
- EC50 (HEK293): > 35.4 µM (not active)
- EC50 [12]: > 35.4 µM (not active)
- EC50 [13]: 21.6 µM (active)
- EC50 [14]: 2.28 µM (active)

Structure (SMILES): CCN(CC)c1ccc(NC(=O)COc2ccc(N(C)S(=O)(=O)c3cccs3)cc2)cc1
- EC50 [10]: > 30 µM (not active)
- EC50 (Mucolipin-3): > 29.9 µM (not active)
- EC50 (Ion channel NompC): > 29.9 µM (not active)
- EC50 [14]: 2.28 µM (active)

Structure (SMILES): Cc1ccsc1/C=N\NC(=O)c1ccc2c(c1)OCO2
- EC50 [15]: > 50 µM (active)
